In series [1] the test system is HIF-1α. Briefly: HIF-1α accumulation under real hypoxia (1% oxygen), western blotting and immunostaining. The series is classed as cell-based, human. The conditions noted are these: 24 h. Here is the method: For immunofluorescence observation, Hep3B cells were seeded on microplates at 2 or 5 × 10^4 cells/mL and cultured for 18 h. […] The medium in the microplate wells was then removed and cells were fixed with 3.7% formaldehyde in PBS for 15 min then permeabilized for 5 min with 100% cold MeOH. Cells were washed with PBS containing 1% bovine serum albumin (PBS-1% BSA), and then treated with 5% bovine serum albumin for 20 min. The cells in each well were treated with HIF-1α antibody in PBS-0.1% BSA then placed in a humidified atmosphere of 5% CO2 at 37 °C and incubated for 60 min. After being washed with PBS-0.1% BSA, treated wells of HIF-1α were incubated with Alexa Fluor 488-conjugated mouse anti-IgG antibody in PBS-0.1% BSA then incubated at room temperature for 60 min. After being washed with PBS-0.1% BSA, the dish wells were overlaid with Hoechst 33342 for 5 min at room temperature and then washed with PBS-0.1% BSA. Fluorescence was photographed with an inverted ECLIPSE Ti-U microscope (Nikon Corporation, Japan).
(Immunoblotting shows a protein as a band on a membrane.)

For series [2], the target named is T1, full-length hnRNPA2B1 (1–353 aa) (Homo sapiens, UniProt P22626).
T1 construct: 1–353 aa; His; made in house; host or cells: bacteria (pET28A vector)
T1 sequence (P22626 whole entry, the tested form may be a part): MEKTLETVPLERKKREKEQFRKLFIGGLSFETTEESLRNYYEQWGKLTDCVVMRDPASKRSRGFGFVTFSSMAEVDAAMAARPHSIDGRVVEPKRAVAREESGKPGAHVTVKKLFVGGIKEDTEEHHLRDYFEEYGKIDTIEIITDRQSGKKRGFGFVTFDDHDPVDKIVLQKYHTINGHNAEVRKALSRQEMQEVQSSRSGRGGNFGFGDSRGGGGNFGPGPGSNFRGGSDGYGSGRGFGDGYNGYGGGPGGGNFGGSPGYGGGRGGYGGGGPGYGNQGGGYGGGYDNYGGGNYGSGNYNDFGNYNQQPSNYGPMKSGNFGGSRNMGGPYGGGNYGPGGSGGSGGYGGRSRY
Nature of the series: BLItz association-dissociation binding assay, full-length hnRNPA2B1. The conditions noted are these: 6XHis tagged protein, Con. 5 uM, biotin-MO-460 on streptavidin tip. How it is done: (§1) The binding capacity of hnRNPA2B1 to Biotin-MO-460 was also analyzed using a BLItz™ (Fortebio, Inc., CA, US) instrument with a streptavidin-coated biosensor tip (Pall, USA). The streptavidin-coated tips were pre-wetted for 10 min in an incubation buffer (10 mM HEPES pH 7.4, 1% BSA and 0.05% Tween 20). The streptavidin-coated tips were immobilized with 1 μM Biotin-MO-460 in incubation buffer (10 mM HEPES pH 7.4, 1% BSA and 0.05% Tween 20) for 5 min. […] The concentrations were then incubated with HEPES for another 3 min to desorb the protein. Analysis of the accurate and precise kinetic constants was performed by the BLItz data analysis software (BLItz Pro 1.1).

For series [3], the system named is hnRNPA2B1 domain-based constructs fused to GFP. Nature of the series: Pull-down assay with GFP-fused domain constructs of hnRNPA2B1. It counts as binding, human. The conditions noted are these: GFP-fused N-terminal RNA recognition motifs.
Series [4] deals with T2, hnRNPA2B1 domain-based constructs fused to GFP (Homo sapiens, UniProt P22626).
T2 construct: expressed in transfected cells
The description is as above. It counts as binding.

Series [5] has as its target T3, hnRNPA2B1 RRM (1–193 aa) (Homo sapiens, UniProt P22626).
T3 construct: 1–193 aa; His; made in house; host or cells: bacteria (pET28A vector)
Nature of the series: BLItz association-dissociation binding assay, RRM of hnRNPA2B1. The conditions noted are these: 6XHis tagged protein, biotin-MO-460 on streptavidin tip. How it is done:
as §1

Series [6] concerns the target T4, hnRNPA2B1 GRD (202–353 aa) (Homo sapiens, UniProt P22626).
T4 construct: 202–353 aa; His; made in house; host or cells: bacteria (pET28A vector)
Briefly: BLItz association-dissociation binding assay, GRD of hnRNPA2B1. The conditions noted are these: 6XHis tagged protein, Con. 5 uM, biotin-MO-460 on streptavidin tip. How it is done: as §1

The values that follow come from article PMC6372683, “Mechanism of the natural product moracin-O derived MO-460 and its targeting protein hnRNPA2B1 on HIF-1α inhibition” (Experimental & Molecular Medicine, 2019).

T3 sequence (P22626 1-193): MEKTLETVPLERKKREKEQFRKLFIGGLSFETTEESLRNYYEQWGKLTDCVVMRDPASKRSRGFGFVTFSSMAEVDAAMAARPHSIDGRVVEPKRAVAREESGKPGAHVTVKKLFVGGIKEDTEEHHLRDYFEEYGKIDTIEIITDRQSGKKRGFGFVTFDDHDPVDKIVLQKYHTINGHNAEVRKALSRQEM
T4 sequence (P22626 202-353): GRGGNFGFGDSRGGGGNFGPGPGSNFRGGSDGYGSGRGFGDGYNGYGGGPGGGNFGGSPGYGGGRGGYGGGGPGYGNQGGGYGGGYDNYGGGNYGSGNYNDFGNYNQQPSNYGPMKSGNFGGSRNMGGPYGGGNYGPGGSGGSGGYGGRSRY

For the compound `CC(C)(O)[C@H]1Cc2cc3cc(-c4cc(O)cc(O)c4)oc3cc2O1` [(R)-(-)-moracin O, (R)-(-)-moracin-O, reference compound], the HIF-1α accumulation result in series [1] was “reduction in HIF-1α accumulation”.
In general, Kd refers to the free concentration of one partner at which half of the binding sites on the other are occupied at equilibrium, for simple one-to-one binding. Higher therefore signals a looser complex. A word on the melting point: it is the temperature of the solid-liquid transition. As for `CC(C)(O)[C@H]1Cc2cc3cc(-c4ccc(OCC(=O)NCCOCCOCCNC(=O)CCCC[C@@H]5SC[C@@H]6NC(=O)N[C@@H]65)cc4)oc3cc2O1` [biotin-MO-460, (R)-5-(2-Oxo-hexahydro-thieno[3,4-d]-imidazol-4-yl)-pentanoic acid-(2-{2-[2-(2-{4-[6-(1-hydroxy-1-methyl-ethyl)-5,6-dihydro-benzo[1,2-b;5,4-b']difuran-2-yl]-phenoxy}-acetyl-amino)-ethoxy]-ethoxy}-ethyl)-amide], the melting point is 165.1 to 168.2 °C (dec.). In series [2], this compound showed a Kd of 11.4 µM. Further, the “binding of RRM1, RRM2 and RRM1-RRM2 in pull-down” value in series [3] was “did not bind”. The “binding of C-terminal glycine-rich domain (GRD) in pull-down” value in series [4] (GFP-fused GRD) is given as “strongly bound”. For the same compound, the “binding of full-length hnRNPA2B1 in pull-down” value in series [4] (GFP-fused full-length hnRNPA2B1) is “strongly bound”. The Kd entry in series [5] was “no specific interactions”. The compound further returned a Kd in series [6] of 6.6 µM.
